This assay relates to WT MYXV. It is filed as cell-based, myxoma virus.

Residues, ends and D or L forms follow the SMILES beside them. *: point of attachment. Cbz = O=C(OCc1ccccc1)*

In the case of Actinomycin D, the “elevated luciferase activity resulting from infecting SAMD9-null cells” value is “did not eliminate the elevated luciferase activity” and the “overall luciferase activity compared with untreated corresponding infection” value is listed as “did reduce the overall luciferase activity”.

With “cytosine beta-D-arabinofuranoside [Cytosine arabinoside]”, the “luciferase activity emitted from infection in both cell lines” value was “did not affect luciferase activity”.

For the molecule `CC(C)C[C@@H](C=O)NC(=O)[C@H](CC(C)C)NC(=O)[C@H](CC(C)C)NC(=O)OCc1ccccc1` [MG132, Z-Leu-Leu-Leu-al] (Cbz-Leu-Leu-Leu-aldehyde), the “improved infection in SAMD9-null cells” value is “did not affect improved infection”.

The values above are taken from US12428626B2 (priority 2018, dated 2025).
